Experimental data: patent US20240074473A1, “METHOD FOR INDUCING HYPERTROPHIC MUSCLE FIBERS FOR INDUSTRIAL MEAT PRODUCTION” (Yeda Research and Development Co. Ltd., priority 2021, published 2024)

Columns and labels:
primary mouse myoblasts = experiment: MYOG positive nuclei in primary mouse myoblasts (immunofluorescence); type: cell-based; conditions: 24 hours, ERKi in growth medium
Protocol: Isolation of and treatment of primary myoblasts. Primary mouse myoblasts were isolated from gastrocnemius muscle using trypsin-tissue dissociation. Briefly, muscle tissues were incubated in Trypsin B (0.25%, Biological Industries) and subjected to mechanical dissociation with a serological pipet. Supernatants were strained and centrifuged. Pellets were grown resuspended in BioAmf-2 media (Biological Industries, Israel) and plated on 10% Matrigel (BD Biosciences)-coated plates at 37° and 5% CO2. For all in vitro experiments, proliferation medium was Bio-Amf2 (Biological Industries, Israel) and Differentiation medium (DM) was DMEM 2% Horse Serum (HS) with 1% Pen/Strep. For fusion assays, cells were trypsinized with Trypsin C (0.05%, Biological Industries) and subjected to two rounds of preplating on uncoated plates to reduce the number of fibroblasts. Cells were plated at a density of 8×10^3 per well in 10% Matrigel-coated 96-well plates in proliferation medium for 24 hours. The following day, proliferation media was replaced either with proliferation media or with DM containing DMSO (Ctrl) or 1 μM ERK1/2 inhibitor (ERKi; SCH772984, Cayman Chemicals), […] RXR antagonist (RXRi; HX-531, Cayman Chemicals), […] Ryanodine receptor antagonist (RYRi; Dantrolene, Cayman Chemicals), 5 μM CaMKII inhibitor (CaMKIIi; KN93, Cayman Chemicals), or with DM for controls.
Immunofluorescence staining. First passage primary myoblasts isolated from various strains (indicated in figure legends) were plated in 96-well plates or chamber slides and treated as previously described. The cells were fixed with ice cold 4% PFA in PBS for 10 minutes, permeabilized with 0.5% Triton X-100 in PBS for 6 minutes, and blocked in PBS with 0.025% tween, 10% normal horse serum and 10% normal goat serum for 1 hour at room temperature. Primary antibody incubation was done in blocking buffer overnight at 4 degrees, with the following antibodies: Myosin Heavy Chain (MyHC, MF20, DSHB hybridoma supernatant 1:10, or MY-32 ABCAM ab51263 1:400), Myogenin (MYOG sc-13137 SCBT 1:200), pHistone 3 (PH3, ab47297 ABCAM 1:1000), Ki-67 (Cell Marque #275R), RYR (ab2868 ABCAM 1:100), and pCaMKII (SIGMA SAB4504356 1:100). Cells were washed 3 times in PBS with 0.025% tween and then incubated with appropriate secondary antibodies in PBS 1 hour. Where indicated, nuclei were either labeled with DAPI (SIGMA D9542, 5 ug/ml) or Hoechst 33342 (Thermo scientific #62249, 1:2000). Fixed cells at 24 hours post treatment with indicated inhibitors were imaged using the Nikon Eclipse Ti2 microscope (further described in microscopy section). All analysis was performed on at least 1000 nuclei. For fixed cells following the timecourse with ERKi or DM (FIG. 1B), images were captured with an inverted Olympus IX83 microscope (further details in microscopy section). All imaging analysis were performed on at least 1000 cells.

ovine myoblasts = experiment: Live imaging of fusion in ovine myoblasts; type: cell-based; conditions: sheep derived myoblasts, 1 μM
Protocol: Bovine myoblasts were seeded in equal number in 96-well plates and the following day treated either with PM, PM supplemented with 0.5 uM SCH 772984 (ERKi) or differentiation media (DM). Media was replenished daily either with fresh PM or DM (ERKi was not added again). At 72 hours post treatment, cells were fixed and stained for myosin heavy chain, and several fields per condition were imaged. Nuclei per fiber was quantified per field to result in a fusion index. For ovine myoblasts—equal number of cells were seeded in an 8 well chamber slide for 24 hours. The following day cells were treated with either with 1 uM SCH 772984 (ERKi) or differentiation media (DM), supplemented with 100 nM of Sir-Actin reagent, then incubated for 4 hours and then the slide was transferred to a heated and CO2 chambered microscope unit. Several fields of view were selected and live imaging was performed by capturing images of each field every 7 minutes. The series of images for each treatment over a period of 31 hours was stacked into a movie file using ImageJ.

O=C(Nc1ccc2[nH]nc(-c3ccncc3)c2c1)[C@@H]1CCN(CC(=O)N2CCN(c3ccc(-c4ncccn4)cc3)CC2)C1 [SCH772984]
Fraction of MYOG positive nuclei compared to DM (primary mouse myoblasts): significantly higher | Fusion and myotube formation compared to DM (ovine myoblasts): significantly more fusion and myotube formation
